System: C. albicans CAN14
Assay: Murine model of oral candidiasis
Format: in vivo, C57BL/6 mice
Conditions: 600 IU, into the mouth every 12 h for 4 days, immunosuppressed mice

**Q.** How did the “fungal load on the tongue (CFU) versus untreated control” value turn out when `C[C@@H]1[C@H](O)[C@@H](C)/C=C/C=C/CC/C=C/C=C/C=C/C=C/C(O[C@H]2O[C@H](C)[C@@H](O)[C@H](N)[C@@H]2O)CC2O[C@](O)(CC(O)C(O)CCC(O)CC(O)CC(O)CC(=O)O[C@H]1C)CC(O)C2C(=O)O` (stereo partly shown) [nystatin] was run?
**A.** lower

Reference: publication PMC6308944, “Anti-Candida albicans Activity of Thiazolylhydrazone Derivatives in Invertebrate and Murine Models” (Journal of Fungi, 2018)
